Assay results taken from patent publication US20040166163A1, “Antibacterial composition for medical tool” (priority 2001, published 2004).

Assays:
Type in all cases: cell-based
Bacillus subtilis = assay: Antimicrobial test of PVC test piece, bacteria (surviving cells); settings: soft PVC sheet; ZnPT 0.01 + test compound 0.3 parts per 100 PVC; 35° C., 2 days
Description: (§1) A mixture having the formulation described below was roll kneaded at 170° C. to prepare a sheet, which was pressed at 180° C. for 5 minutes to obtain a 0.5 mm thick soft PVC sheet. A 10 mm×10 mm test piece was cut out of the soft PVC sheet and evaluated for antimicrobial properties against bacteria (Nos. 1 to 5 in Table 1) and fungi (Nos. 6 to 8 in Table 1) in accordance with the respective methods described below.
(§2) The culture solution was applied to the test piece, and the test piece was tightly covered with polyethylene cling film. After cultivation at 35° C. for 2 days, the number of surviving cells was counted and rated based on the following criteria.
(§3) A mixture having the formulation shown below was roll kneaded at 170° C. to prepare a sheet, which was pressed at 180° C. for 5 minutes to obtain a 0.5 mm thick semi-rigid PVC sheet. A 10 mm×10 mm test piece was cut out of the semi-rigid PVC sheet. Zinc pyrithione and a test compound were previously compounded to prepare an antimicrobial composition in a predetermined ratio to give the formulation. The test piece was tested in the same manner as in Example 1.

Escherichia coli = assay: as above; settings: soft PVC sheet; ZnPT 0.01 + test compound 0.3 parts per 100 PVC; 35° C., 2 days
Description: as §1, §2, §3

Lactobacillus = assay: as above; settings: soft PVC sheet; ZnPT 0.01 + test compound 0.3 parts per 100 PVC; 35° C., 2 days
Description: as §1, §2, §3

MRSA = assay: as above; settings: soft PVC sheet; ZnPT 0.01 + test compound 0.3 parts per 100 PVC; 35° C., 2 days
Description: as §1, §2, §3

Staphylococcus aureaus = assay: as above; settings: soft PVC sheet; ZnPT 0.01 + test compound 0.3 parts per 100 PVC; 35° C., 2 days
Description: as §1, §2, §3

Brewer's yeast = assay: Antimicrobial test of PVC test piece, fungi (growth on agar-covered piece); design: key: A: No growth on the test piece.; B: The grown fungi covers less than 30% of the test piece's surface area.; C: The grown fungi covers 30% or more and less than 70% of the test piece's surface area.; D: The grown fungi covers 70% or more of the test piece's surface area; settings: soft PVC sheet; ZnPT 0.01 + test compound 0.3 parts per 100 PVC; 35° C., 1 week
Description: as §1
(§4) The test piece was placed at the center of a culture dish, and a common agar medium was poured to thinly cover the test piece. The culture solution was applied to the agar medium and cultivated at 35° C. for 1 week. The growth of the fungus was observed and rated based on the following criteria.
as §3

Kurokawa mold = assay: as above; design: key: A: No growth on the test piece.; B: The grown fungi covers less than 30% of the test piece's surface area.; C: The grown fungi covers 30% or more and less than 70% of the test piece's surface area.; D: The grown fungi covers 70% or more of the test piece's surface area; settings: soft PVC sheet; ZnPT 0.01 + test compound 0.3 parts per 100 PVC; 35° C., 1 week
Description: as §1, §4, §3

Trichophyton = assay: as above; design: key: A: No growth on the test piece.; B: The grown fungi covers less than 30% of the test piece's surface area.; C: The grown fungi covers 30% or more and less than 70% of the test piece's surface area.; D: The grown fungi covers 70% or more of the test piece's surface area; settings: soft PVC sheet; ZnPT 0.01 + test compound 0.3 parts per 100 PVC; 35° C., 1 week
Description: as §1, §4, §3

Structure (SMILES)	Survival rate rating, microorganism 3: Bacillus subtilis (Bacillus subtilis)	Survival rate rating, microorganism 5: Escherichia coli (Escherichia coli)	Survival rate rating, microorganism 4: Lactobacillus (Lactobacillus)	Survival rate rating, microorganism 2: MRSA (MRSA)	Survival rate rating, microorganism 1: Staphylococcus aureaus (Staphylococcus aureaus)	Fungal growth rating, microorganism 7: Brewer's yeast (Brewer's yeast)	Fungal growth rating, microorganism 8: Kurokawa mold (Kurokawa mold)	Fungal growth rating, microorganism 6: Trichophyton (Trichophyton)
Cc1cc2c(c(C(C)(C)C)c1)OP(=O)([O-])Oc1c(cc(C)cc1C(C)(C)C)C2.[Na+] [No. 6]	A (The survival rate is less than 0.1%.)	A (The survival rate is less than 0.1%.)	A (The survival rate is less than 0.1%.)	A (The survival rate is less than 0.1%.)	A (The survival rate is less than 0.1%.)	A	A	A
CC1c2cc(C(C)(C)C)cc(C(C)(C)C)c2OP(=O)([O-])Oc2c1cc(C(C)(C)C)cc2C(C)(C)C.[Na+] (stereo not drawn) [No. 7]	A (The survival rate is less than 0.1%.)	A (The survival rate is less than 0.1%.)	A (The survival rate is less than 0.1%.)	A (The survival rate is less than 0.1%.)	A (The survival rate is less than 0.1%.)	A	A	A
Cc1c(C(C)(C)C)cc(C(C)(C)C)c2c1C(C)c1c(C)c(C(C)(C)C)cc(C(C)(C)C)c1OP(=O)([O-])O2.[Na+] (stereo not drawn) [No. 8]	A (The survival rate is less than 0.1%.)	A (The survival rate is less than 0.1%.)	A (The survival rate is less than 0.1%.)	A (The survival rate is less than 0.1%.)	A (The survival rate is less than 0.1%.)	A	A	A
